In US5397781A, “Pyrimidine derivatives” (Mochida Pharmaceutical Company, Limited, priority 1992, dated 1995):
Where two headings read alike, the source gives them in different places.

Key:
serum total cholesterol = assay: Hypocholesterolemic effect on cholesterol feeding rats; assay type: in vivo, male Wistar rats; conditions: Rattus norvegicus, oral, high cholesterol diet rats, read-out: % reduction of serum total cholesterol; for inhibition in vivo at 10 mg/kg: 10 mg/kg/day; for inhibition in vivo at 30 mg/kg: 30 mg/kg/day
Protocol: Hypocholesterolemic effect on cholesterol feeding rats. Male Wistar rats aged 7 weeks old were fed a diet (CE®) supplemented with 2%(w/w) cholesterol, 0.5%(w/w) sodium cholate, 10%(w/w) lard, 0.2%(w/w) propylthiouracyl and 5%(w/w) sucrose, for 3 days. Following 3 days, the compounds of the present invention were administered orally, and the animals were maintained with the high cholesterol diet. On the next day of final drug administration, blood was drown and serum total cholesterol-levels were measured enzymatically by autoanalyzer. CL277082 was used as a reference compound.

male Wistar rats = assay: Acute toxicity; assay type: in vivo; conditions: single oral dose 1 g/kg, 7 days observation
Source text: The pyrimidine derivatives of the present invention were examined for acute toxicity by using male Wistar rats fasted over night aged 7 weeks old.

macrophages = assay: Inhibitory effect on cholesteryl ester accumulation in macrophages; assay type: cell-based, mouse (ddy-family male mice); conditions: Macrophage, read-out: Inhibition activity on cholesteryl ester accumulation (IC50 grade)
Protocol: Inhibitory effect on cholesteryl ester accumulation in macrophages.
Namely resident peritoneal cells suspended in phosphate-buffered saline (PBS) were plated in plastic Petri dishes (35 mm×10 mm) at a density of 2×10^6 cells. The adherent macrophages were cultured overnight at 37° C. in Dalbecco's modified Eagle medium (DME) containing 10% fetal bovine serum (FCS) under humidified 5% CO2. […] After discarding the medium, each macrophage monolayer was washed with PBS and lipids were extracted with hexane/isopropyl alcohol (3:2). Cholesteryl esters in the extract were separated by thin-layer chromatography and the radioactivity was measured by liquid scintillation counter.

ACAT = target: T1, ACAT (Rattus norvegicus, UniProt Q7TQM4); assay: Inhibitory effect on microsomal ACAT activity in rat liver; assay type: biochemical; conditions: rat liver microsomes; read-out: IC50 (50% inhibition of cholesterol esterification)
T1 construct: Liver microsomes as an enzyme sample of ACAT were prepared from overnight-fasted male rats; from tissue; host or cells: liver of overnight-fasted male rats, 6 weeks old; microsomes
T1 sequence (Q7TQM4 1-524): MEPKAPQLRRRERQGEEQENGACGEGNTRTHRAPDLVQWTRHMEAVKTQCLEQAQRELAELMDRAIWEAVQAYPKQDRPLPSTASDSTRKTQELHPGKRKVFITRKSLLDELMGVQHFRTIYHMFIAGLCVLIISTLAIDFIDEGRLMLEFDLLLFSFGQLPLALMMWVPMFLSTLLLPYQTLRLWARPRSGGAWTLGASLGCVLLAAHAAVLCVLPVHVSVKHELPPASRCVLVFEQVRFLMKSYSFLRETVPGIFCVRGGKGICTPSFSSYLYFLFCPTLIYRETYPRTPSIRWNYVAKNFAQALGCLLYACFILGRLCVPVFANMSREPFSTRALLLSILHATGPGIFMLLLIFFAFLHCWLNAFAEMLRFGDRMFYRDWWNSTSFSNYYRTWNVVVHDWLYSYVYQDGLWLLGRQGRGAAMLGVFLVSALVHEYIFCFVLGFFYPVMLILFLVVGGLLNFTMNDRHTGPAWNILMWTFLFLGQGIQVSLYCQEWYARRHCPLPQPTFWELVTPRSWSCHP

[1] = mouse peritoneal macrophages, β-VLDL, [3H]oleic acid, 3 hrs

SMILES	IC50 (macrophages; [1]) [nM]	IC50 (ACAT) [nM]	also measured
CCCCCCN(CCCC(=O)Nc1c(SC)ncnc1N(CC)CC)c1ccccc1 [Example 232, N-[4-(N,N-diethylamino)-6-methylthiopyrimidin-5-yl]-4-(N-hexyl-N-phenylamino)butanamide]			inhibition in vivo at 10 mg/kg (serum total cholesterol): 65%; lethal incident (acute toxicity) (male Wistar rats): no lethal incident was observed
CCCCCCN(CCCC(=O)Nc1c(SC)nc(C)nc1N1CCOCC1)c1ccccc1 [Example 231, N-[2-methyl-4-methylthio-6-morpholinopyrimidin-5-yl]-4-(N-hexyl-N-phenylamino)butanamide]			lethal incident (acute toxicity) (male Wistar rats): no lethal incident was observed
CCCCCCN(CCCC(=O)Nc1c(SC)nc(C)nc1N(CC)CC)c1ccccc1OC [Example 240, N-[4-(N,N-diethylamino)-2-methyl-6-methylthiopyrimidin-5-yl]-4-[N-hexyl-N-(2-methoxyphenyl)amino]butanamide]		73	lethal incident (acute toxicity) (male Wistar rats): no lethal incident was observed
CCCN(CCCC(=O)Nc1c(S)ncnc1N(CCC)c1ccccc1)c1ccccc1 [Example 149, N-[4-mercapto-6-(N-phenyl-N-propylamino)pyrimidin-5-yl]-(N-phenyl-N-propylamino)butanamide]		140	inhibition in vivo at 30 mg/kg (serum total cholesterol): 21%
CCCCCCN(CCCC(=O)Nc1c(SC(C)C)nc(C)nc1N(CC)CC)c1ccccc1 [Example 262, N-[4-(N,N-dietylamino)-6-isopropylthio-2-methylpyrimidin-5-yl]-4-(N-hexyl-N-phenylamino)butanamide]			inhibition in vivo at 10 mg/kg (serum total cholesterol): 53%; lethal incident (acute toxicity) (male Wistar rats): no lethal incident was observed
CCCCCCCN(Cc1ccc(CC(C)(C)C)cc1)C(=O)Nc1ccc(F)cc1F [CL277082, (N'-2,4-difluorophenyl)-N-[[4-(2,2-dimethylpropyl)phenyl]methyl]-N-heptylurea, reference compound]			IC50 (macrophages; Mus musculus, 3 h): 1000 to 10000 nM; inhibition in vivo at 30 mg/kg (serum total cholesterol): 52%
CCCN(CCC(=O)Nc1c(SC)nc(C)nc1N(CC)CC)c1ccccc1 [Example 216, N-[4-(N,N-diethylamino)-2-methyl-6-methylthiopyrimidin-5-yl]-3-(N-phenyl-N-propylamino)propionamide]		120	inhibition in vivo at 100 mg/kg (serum total cholesterol; 100 mg/kg/day): 33%
CCCCCCCN(Cc1ccccc1)c1nc(C)nc(S)c1NC(=O)CCCN(CCC)c1ccccc1 [Example 148, N-[4-(N-benzyl-N-heptylamino)-6-mercapto-2-methylpyrimidin-5-yl]-4-(N-phenyl-N propylamino)butanamide]	10 to 100	55	
CCCN(CCCC(=O)Nc1c(S)nc(C)nc1N(CC)CC)c1ccc(F)cc1F [Example 180, N-[4-(N,N-diethylamino)-6-mercapto-2-methylpyrimidin-5-yl]-4-[N-(2,4-difluorophenyl)-N-propylamino]butanamide]		200	
CCCN(CC(=O)Nc1c(S)nc(C)nc1N(CC)CC)c1ccccc1 [Example 133, N-[4-(N,N-diethylamino)-6-mercapto-2-methylpyrimidin-5-yl]-2-(N-phenyl-N-propylamino)acetamide]		260	
CCCCCCCN(CCCC(=O)Nc1c(S)nc(C)nc1N(CC)CC)Cc1ccccc1 [Example 182, 4-(N-benzyl-N-heptylamino)-N-[4-(N,N-diethylamino)-6-mercapto-2-methylpyrimidin-5-yl]butanamide]		220	

Second part, led by results:

IC50 (macrophages; [1]) [nM]	IC50 (ACAT) [nM]	SMILES	also measured
100 to 1000	52	CCCN(CCCC(=O)Nc1c(SC)nc(C)nc1N(CC)CC)c1ccccc1 [Example 220, N-[4-(N,N-diethylamino)-2-methyl-6-methylthiopyrimidin-5-yl]-4-(N-phenyl-N-propylamino)butanamide]	inhibition in vivo at 30 mg/kg (serum total cholesterol): 23%
100 to 1000	160	CCCCCCCN(Cc1ccccc1)c1nc(C)nc(SC)c1NC(=O)CCCCN(CCC)c1ccccc1 [Example 249, N-[4-(N-benzyl-N-heptylamino)-2-methyl-6-methylthiopyrimidin-5-yl]-5-(N-phenyl-N-propylamino)pentanamide]	
100 to 1000	110	CCCN(CCCC(=O)Nc1c(SC)nc(C)nc1N(CC)CC)c1ccc(OC)cc1 [Example 238, N-[4-(N,N-diethylamino)-2-methyl-6-methylthiopyrimidin-5-yl]-4-[N-(4-methoxyphenyl)-N-propylamino)butanamide]	inhibition in vivo at 10 mg/kg (serum total cholesterol): 65%
10 to 100	64	CCCCCCCN(Cc1ccccc1)c1nc(C)nc(SC)c1NC(=O)CCCN(CCC)c1ccccc1 [Example 223, N-[4-(N-benzyl-N-heptylamino)-2-methyl-6-methylthiopyrimidin-5-yl]-4-(N-phenyl-N-propylamino)butanamide]	inhibition in vivo at 10 mg/kg (serum total cholesterol): 70%
	220	CCCN(CCCC(=O)Nc1c(SC)nc(C)nc1N(CC)CC)Cc1ccccc1 [Example 242, 4-(N-benzyl-N-propylamino)-N-[4-(N,N-diethylamino)-2-methyl-6-methylthiopyrimidin-5-yl]butanamide]	
10 to 100	19	CCCCCCN(CCCC(=O)Nc1c(SC)nc(C)nc1N(CC)CC)c1ccccc1 [Example 225, N-[4-(N,N-diethylamino)-2-methyl-6-methylthiopyrimidin-5-yl]-4-(N-hexyl-N-phenylamino)butanamide]	inhibition in vivo at 10 mg/kg (serum total cholesterol): 64%
	220	CCCCCCSc1nc(C)nc(N(CCC)c2ccccc2)c1NC(=O)CCCN(CCC)c1ccccc1 [Example 257, N-[4-hexylthio-2-methyl-6-(N-phenyl-N-propylamino)pyrimidin-5-yl]-4-(N-phenyl-N-propylamino)butanamide]	
100 to 1000	130	CCCN(CCCC(=O)Nc1c(SC)nc(C)nc1N(C)C)c1ccccc1 [Example 219, N-[4-(N,N-dimethylamino)-2-methyl-6-methylthiopyrimidin-5-yl]-4-(N-phenyl-N-propylamino)butanamide]	
	76	CCCN(CCCC(=O)Nc1c(SCc2ccccc2)nc(C)nc1N(CC)CC)c1ccccc1 [Example 259, N-[4-benzylthio-6-(N,N-dietylamino)-2-methylpyrimidin-5-yl]-4-(N-phenyl-N-propylamino)butanamide]	
	14	CCCN(CCCCC(=O)Nc1c(SC)nc(C)nc1N(CCC)CCC)c1ccccc1 [Example 246, N-[4-(N,N-dipropylamino)-2-methyl-6-methylthiopyrimidin-5-yl]-5-(N-phenyl-N-propylamino)pentanamide]	
	64	CCCN(CCCCC(=O)Nc1c(SC)nc(C)nc1N(CC)CC)c1ccccc1 [Example 245, N-[4-(N,N-diethylamino)-2-methyl-6-methylthiopyrimidin-5-yl]-5-(N-phenyl-N-propylamino)pentanamide]	
10 to 100	29	CCCCN(CCCC)c1nc(C)nc(SC)c1NC(=O)CCCN(CCC)c1ccccc1 [Example 221, N-[4-(N,N-dibutylamino)-2-methyl-6-methylthiopyrimidin-5-yl]-4-(N-phenyl-N-propylamino)butanamide]	
	100	CCCSc1nc(C)nc(N(CCC)c2ccccc2)c1NC(=O)CCCN(CCC)c1ccccc1 [Example 256, N-[2-methyl-4-(N-phenyl-N-propylamino)-6-propylthiopyrimidin-5-yl]-4-(N-phenyl-N-propylamino)butanamide]	
	100	CCCN(CCCC(=O)Nc1c(OCc2ccccc2)nc(C)nc1C(C)C)c1ccccc1 [Example 263, N-(4-benzyloxy-6-isopropyl-2-methylpyrimidin-5-yl)-4-(N-phenyl-N-propylamino)butanamide]	
	33	CCCCCCN(CCCCC(=O)Nc1c(SC)nc(C)nc1N(CC)CC)c1ccccc1 [Example 252, N-[4-(N,N-diethylamino)-2-methyl-6-methylthiopyrimidin-5-yl]-5-(N-hexyl-N-phenylamino)pentanamide]	
